Assay results published in ChEMBL document CHEMBL2029253, “Pharmacophore modeling, virtual screening and 3D-QSAR studies of 5-tetrahydroquinolinylidine aminoguanidine derivatives as sodium hydrogen exchanger inhibitors” (Bioorg Med Chem Lett, 2012).

Experiment: Inhibition of sodium hydrogen exchanger-mediated platelet swelling in human
Details: for IC50: Homo sapiens

Row | Structure (SMILES) | IC50 (read-out: pIC50 (converted)) [nM] | IC50 (read-out: IC50) [nM] | Ki [nM]
1 | Cc1ccnc2c1/C(=N/N=C(N)N)CC(c1ccco1)C2 (configuration not stated) | 110 | – | –
2 | Cc1ccc2c(n1)CC(c1ccccc1)C/C2=N\N=C(N)N (configuration not stated) | 2800 | 2800 | –
3 | COc1ccc(F)cc1C1C/C(=N\N=C(N)N)c2c(C)ccnc2C1 (configuration not stated) | 32 | – | –
4 | Cc1coc2c1/C(=N/N=C(N)N)CC(c1ccccc1Cl)C2 (configuration not stated) | 82 | – | –
5 | Cc1cccc2c1/C(=N/N=C(N)N)CC(c1ccccc1Cl)O2 (configuration not stated) | 200 | – | –
6 | Cc1ccnc2c1/C(=N/N=C(N)N)CC(c1cc(Cl)sc1Cl)C2 (configuration not stated) | 19 | – | –
7 | COc1ccccc1C1C/C(=N\N=C(N)N)c2c(C)ccnc2C1 (configuration not stated) | 100 | 100 | –
8 | N=C(N)N/N=C1\CC(c2ccccc2)Oc2ccccc21 (configuration not stated) | 3300 | ≤ 6400 | –
9 | Cc1csc2c1/C(=N/N=C(N)N)CC(c1ccccc1Cl)C2 (configuration not stated) | 220 | – | –
10 | N=C(N)N/N=C1\CC(c2ccccc2)Cc2ncccc21 (configuration not stated) | 410 | 410 | –
11 | Cc1ccnc2c1/C(=N/N=C(N)N)CC(c1ccsc1)C2 (configuration not stated) | 30 | – | –
12 | Cc1ccnc2c1/C(=N/N=C(N)N)CC(c1cccc(Cl)c1Cl)C2 (configuration not stated) | 88.9 | – | –
13 | Cc1ccnc2c1/C(=N/N=C(N)N)CC(c1cc(F)ccc1Cl)C2 (configuration not stated) | 19 | – | 19
14 | N=C(N)N/N=c1\cc(-c2ccccc2)oc2ccccc12 | 6400 | 6400 | –
15 | Cc1ccnc2c1/C(=N/N=C(N)N)CC(c1cc(F)ccc1F)C2 (configuration not stated) | 39 | – | –
16 | Cc1ccc(F)cc1C1C/C(=N\N=C(N)N)c2c(C)ccnc2C1 (configuration not stated) | 37 | – | –
17 | Cc1ccnc2c1/C(=N/N=C(N)N)CC(c1ccccc1F)C2 (configuration not stated) | 32 | 32 | –
18 | Cc1ccccc1C1C/C(=N\N=C(N)N)c2c(C)ccnc2C1 (configuration not stated) | 57 | 57 | –
19 | Cc1ccnc2c1/C(=N/N=C(N)N)CC(c1cccs1)C2 (configuration not stated) | 47 | – | –

Row | Structure (SMILES) | IC50 (read-out: pIC50 (converted)) [nM] | IC50 (read-out: IC50) [nM] | Ki [nM]
20 | Cc1ccnc2c1/C(=N/N=C(N)N)CC(c1cc(Cl)ccc1Cl)C2 (configuration not stated) | 57.9 | – | –
21 | Cc1ccnc2c1/C(=N/N=C(N)N)CC(c1ccc(Cl)cc1)C2 (configuration not stated) | 550 | < 50 | –
22 | Cc1ccnc2c1/C(=N/N=C(N)N)CC(c1cccc(Cl)c1)C2 (configuration not stated) | 61 | < 50 | –
23 | COc1ccnc2c1/C(=N/N=C(N)N)CC(c1ccccc1Cl)C2 (configuration not stated) | 50 | < 50 | –
24 | N=C(N)N/N=C1\CC(c2ccccc2)Cc2[nH]ccc21 (configuration not stated) | 3500 | – | –
25 | Cc1ccnc2c1/C(=N/N=C(N)N)CC(c1sccc1Cl)C2 (configuration not stated) | 19 | – | –
26 | Cc1ccnc2c1/C(=N/N=C(N)N)CC(c1ccccc1Cl)C2 (configuration not stated) | 40 | < 50 | –
27 | Cc1ncnc2c1/C(=N/N=C(N)N)CC(c1ccccc1Cl)C2 (configuration not stated) | 240 | – | –
28 | Cc1ccccc1C1C/C(=N\N=C(N)N)c2c(C)c[nH]c2C1 (configuration not stated) | 34 | – | –
29 | Cc1ccnc2oc(-c3ccccc3Cl)c/c(=N\NC(=N)N)c12 | 360 | – | –
30 | Cc1[nH]nc2c1/C(=N/N=C(N)N)CC(c1ccccc1Cl)C2 (configuration not stated) | 55 | – | –
31 | Cc1ccnc2c1/C(=N/N=C(N)N)CC(c1ccc(Cl)cc1Cl)C2 (configuration not stated) | 340 | – | –
32 | Cc1ccnc2c1/C(=N/N=C(N)N)CC(c1sc(Cl)cc1Cl)C2 (configuration not stated) | 49 | – | –
33 | Cc1ccnc2c1/C(=N/N=C(N)N)CC(c1ccsc1Cl)C2 (configuration not stated) | 22 | – | –
34 | Cc1cnnc2c1/C(=N/N=C(N)N)CC(c1ccccc1Cl)C2 (configuration not stated) | 26 | – | –
35 | Cc1cc(C)c2c(n1)CC(c1ccccc1)C/C2=N\N=C(N)N (configuration not stated) | 180 | < 50 | –
36 | Cc1ccnc2c1/C(=N/N=C(N)N)CC(c1ccccc1)C2 (configuration not stated) | 91 | < 50 | –
37 | Cc1ccnc2c1/C(=N/N=C(N)N)CC(c1ccccc1Br)C2 (configuration not stated) | 56 | 56 | –
